According to ChEMBL document CHEMBL3352739, “Comparative in vivo evaluation of polyalkoxy substituted 4H-chromenes and oxa-podophyllotoxins as microtubule destabilizing agents in the phenotypic sea urchin embryo assay” (2014):

What was measured:
[1] = Growth inhibition of human EKVX cells after 48 hrs by sulforhodamine B assay; type: functional
[2] = tested on: HOP-62; assay: Growth inhibition of human HOP62 cells after 48 hrs by sulforhodamine B assay; type: functional; conditions: HOP-62, 48 h
[3] = Growth inhibition of human HOP92 cells after 48 hrs by sulforhodamine B assay; type: functional; conditions: HOP-92, 48 h
[4] = tested on: NCI-H226; assay: Growth inhibition of human NCI-H226 cells after 48 hrs by sulforhodamine B assay; type: functional; conditions: NCI-H226, 48 h
[5] = tested on: NCI-H23; assay: Growth inhibition of human NCI-H23 cells after 48 hrs by sulforhodamine B assay; type: functional; conditions: NCI-H23, 48 h
[6] = tested on: NCI-H322M; assay: Growth inhibition of human NCI-H322M cells after 48 hrs by sulforhodamine B assay; type: functional
[7] = tested on: NCI-H460; assay: Growth inhibition of human NCI-H460 cells after 48 hrs by sulforhodamine B assay; type: functional; conditions: NCI-H460, 48 h
[8] = tested on: NCI-H522; assay: Growth inhibition of human NCI-H522 cells after 48 hrs by sulforhodamine B assay; type: functional; conditions: NCI-H522, 48 h
[9] = Growth inhibition of human COLO205 cells after 48 hrs by sulforhodamine B assay; type: functional; conditions: COLO 205, 48 h
[10] = Growth inhibition of human HCC2998 cells after 48 hrs by sulforhodamine B assay; type: functional; conditions: HCC 2998, 48 h
[11] = Growth inhibition of human HCT116 cells after 48 hrs by sulforhodamine B assay; type: functional; conditions: HCT-116, 48 h
[12] = Growth inhibition of human HCT15 cells after 48 hrs by sulforhodamine B assay; type: functional; conditions: HCT-15, 48 h
[13] = tested on: HT-29; assay: Growth inhibition of human HT-29 cells after 48 hrs by sulforhodamine B assay; type: functional; conditions: HT-29, 48 h
[14] = tested on: KM12; assay: Growth inhibition of human KM12 cells after 48 hrs by sulforhodamine B assay; type: functional; conditions: KM12, 48 h
[15] = tested on: SW-620; assay: Growth inhibition of human SW620 cells after 48 hrs by sulforhodamine B assay; type: functional; conditions: SW-620, 48 h
[16] = tested on: SF-268; assay: Growth inhibition of human SF268 cells after 48 hrs by sulforhodamine B assay; type: functional; conditions: SF-268, 48 h
[17] = Growth inhibition of human SF295 cells after 48 hrs by sulforhodamine B assay; type: functional; conditions: SF-295, 48 h
[18] = Growth inhibition of human SF539 cells after 48 hrs by sulforhodamine B assay; type: functional; conditions: SF-539, 48 h
[19] = tested on: SNB-19; assay: Growth inhibition of human SNB19 cells after 48 hrs by sulforhodamine B assay; type: functional; conditions: SNB-19, 48 h
[20] = tested on: SNB-75; assay: Growth inhibition of human SNB75 cells after 48 hrs by sulforhodamine B assay; type: functional; conditions: SNB-75, 48 h
[21] = tested on: U-251; assay: Growth inhibition of human U251 cells after 48 hrs by sulforhodamine B assay; type: functional; conditions: U-251, 48 h
[22] = Growth inhibition of human LOXIMVI cells after 48 hrs by sulforhodamine B assay; type: functional; conditions: LOX IMVI
[23] = tested on: M14; assay: Growth inhibition of human M14 cells after 48 hrs by sulforhodamine B assay; type: functional; conditions: M14, 48 h
[24] = tested on: MDA-MB-435; assay: Growth inhibition of human MDA-MB-435 cells after 48 hrs by sulforhodamine B assay; type: functional; conditions: MDA-MB-435, 48 h
[25] = tested on: SK-MEL-2; assay: Growth inhibition of human SK-MEL-2 cells after 48 hrs by sulforhodamine B assay; type: functional; conditions: SK-MEL-2, 48 h
[26] = tested on: SK-MEL-5; assay: Growth inhibition of human SK-MEL-5 cells after 48 hrs by sulforhodamine B assay; type: functional; conditions: SK-MEL-5, 48 h
[27] = Growth inhibition of human UACC257 cells after 48 hrs by sulforhodamine B assay; type: functional; conditions: UACC-257, 48 h
[28] = Growth inhibition of human UACC62 cells after 48 hrs by sulforhodamine B assay; type: functional; conditions: UACC-62, 48 h
[29] = tested on: IGROV-1; assay: Growth inhibition of human IGROV1 cells after 48 hrs by sulforhodamine B assay; type: functional; conditions: IGROV-1, 48 h
[30] = Growth inhibition of human OVCAR3 cells after 48 hrs by sulforhodamine B assay; type: functional; conditions: OVCAR-3, 48 h
[31] = Growth inhibition of human OVCAR4 cells after 48 hrs by sulforhodamine B assay; type: functional; conditions: OVCAR-4, 48 h
[32] = Growth inhibition of human OVCAR8 cells after 48 hrs by sulforhodamine B assay; type: functional; conditions: OVCAR-8, 48 h
[33] = Growth inhibition of human NCI-ADR-RES cells after 48 hrs by sulforhodamine B assay; type: functional
[34] = tested on: SK-OV-3; assay: Growth inhibition of human SKOV3 cells after 48 hrs by sulforhodamine B assay; type: functional; conditions: SK-OV-3, 48 h
[35] = tested on: 786-0; assay: Growth inhibition of human 786-0 cells after 48 hrs by sulforhodamine B assay; type: functional; conditions: 786-0, 48 h
[36] = tested on: A498; assay: Growth inhibition of human A498 cells after 48 hrs by sulforhodamine B assay; type: functional; conditions: A498, 48 h
[37] = tested on: ACHN; assay: Growth inhibition of human ACHN cells after 48 hrs by sulforhodamine B assay; type: functional
[38] = tested on: CAKI-1; assay: Growth inhibition of human CAKI-1 cells after 48 hrs by sulforhodamine B assay; type: functional; conditions: CAKI-1, 48 h
[39] = Growth inhibition of human RXF393 cells after 48 hrs by sulforhodamine B assay; type: functional; conditions: RXF 393, 48 h
[40] = tested on: SN12C; assay: Growth inhibition of human SN12C cells after 48 hrs by sulforhodamine B assay; type: functional
[41] = Growth inhibition of human UO31 cells after 48 hrs by sulforhodamine B assay; type: functional; conditions: UO-31, 48 h
[42] = Growth inhibition of human PC3 cells after 48 hrs by sulforhodamine B assay; type: functional; conditions: PC-3, 48 h
[43] = tested on: DU-145; assay: Growth inhibition of human DU145 cells after 48 hrs by sulforhodamine B assay; type: functional; conditions: DU-145, 48 h
[44] = tested on: MCF7; assay: Growth inhibition of human MCF7 cells after 48 hrs by sulforhodamine B assay; type: functional; conditions: MCF7, 48 h
[45] = tested on: MDA-MB-231; assay: Growth inhibition of human MDA-MB-231 cells after 48 hrs by sulforhodamine B assay; type: functional; conditions: MDA-MB-231, 48 h
[46] = Growth inhibition of human Hs 578T cells after 48 hrs by sulforhodamine B assay; type: functional
[47] = Growth inhibition of human BT549 cells after 48 hrs by sulforhodamine B assay; type: functional; conditions: BT-549, 48 h
[48] = tested on: T47D; assay: Growth inhibition of human T47D cells after 48 hrs by sulforhodamine B assay; type: functional
[49] = tested on: MDA-MB-468; assay: Growth inhibition of human MDA-MB-468 cells after 48 hrs by sulforhodamine B assay; type: functional; conditions: MDA-MB-468, 48 h
[50] = Growth inhibition of human H1299 cells after 48 hrs by sulforhodamine B assay; type: functional; conditions: NCI-H1299, 48 h
[51] = tested on: Paracentrotus lividus; assay: Antimitotic microtubule destabilizing activity in Paracentrotus lividus L embryos assessed as induction of cleavage alteration
[52] = tested on: Paracentrotus lividus; assay: Antimitotic microtubule destabilizing activity in Paracentrotus lividus L embryos assessed as induction of cleavage arrest
[53] = tested on: Paracentrotus lividus; assay: Antimitotic microtubule destabilizing activity in Paracentrotus lividus L embryos assessed as induction of embryo spinning
[54] = Cytotoxicity against human NCI60 cells; type: functional
[55] = tested on: CCRF-CEM; assay: Growth inhibition of human CCRF-CEM cells after 48 hrs by sulforhodamine B assay; type: functional
[56] = tested on: HL-60(TB); assay: Growth inhibition of human HL-60(TB) cells after 48 hrs by sulforhodamine B assay; type: functional; conditions: HL-60, 48 h
[57] = tested on: K562; assay: Growth inhibition of human K562 cells after 48 hrs by sulforhodamine B assay; type: functional; conditions: K562, 48 h
[58] = Growth inhibition of human MOLT4 cells after 48 hrs by sulforhodamine B assay; type: functional; conditions: MOLT-4, 48 h
[59] = Growth inhibition of human RPMI8226 cells after 48 hrs by sulforhodamine B assay; type: functional; conditions: RPMI-8226, 48 h
[60] = tested on: SR; assay: Growth inhibition of human SR cells after 48 hrs by sulforhodamine B assay; type: functional
[61] = tested on: A549; assay: Growth inhibition of human A549/ATCC cells after 48 hrs by sulforhodamine B assay; type: functional; conditions: A549, 48 h

SMILES: COc1ccc2c(c1)OC(N)=C(C#N)C2c1cc(OC)c(OC)c(OC)c1 (racemic)
- GI50 [1]: 251 nM
- GI50 [2]: 62.6 nM
- GI50 [3]: 20.7 nM
- GI50 [4]: 83.9 nM
- GI50 [5]: 36.5 nM
- GI50 [6]: 48 nM
- GI50 [7]: 34.4 nM
- GI50 [8]: 12.3 nM
- GI50 [9]: 28.1 nM
- GI50 [10]: 28.2 nM
- GI50 [11]: 30.6 nM
- GI50 [12]: 32.8 nM
- GI50 [13]: 27.8 nM
- GI50 [14]: 25.1 nM
- GI50 [15]: 38.8 nM
- GI50 [16]: 73.2 nM
- GI50 [17]: 25.2 nM
- GI50 [18]: 33.5 nM
- GI50 [19]: 86.4 nM
- GI50 [20]: 42.9 nM
- GI50 [21]: 26.2 nM
- GI50 [22]: 34 nM
- GI50 [23]: 25.5 nM
- GI50 [24]: 15 nM
- GI50 [25]: 27.6 nM
- GI50 [26]: 24 nM
- GI50 [27]: 37.1 nM
- GI50 [28]: 37.9 nM
- GI50 [29]: 42.5 nM
- GI50 [30]: 25.8 nM
- GI50 [31]: 80.8 nM
- GI50 [32]: 34.5 nM
- GI50 [33]: 19.9 nM
- GI50 [34]: 33 nM
- GI50 [35]: 49.4 nM
- GI50 [36]: 20.9 nM
- GI50 [37]: 76 nM
- GI50 [38]: 146 nM
- GI50 [39]: 25.9 nM
- GI50 [40]: 58.7 nM
- GI50 [41]: 1570 nM
- GI50 [42]: 42.8 nM
- GI50 [43]: 25.2 nM
- GI50 [44]: 34.2 nM
- GI50 [45]: 38.1 nM
- GI50 [46]: 49 nM
- GI50 [47]: 25 nM
- GI50 [48]: > 100000 nM
- GI50 [49]: 21.6 nM
- GI50 [50]: 45 nM
- EC [51]: 0.01 µM
- EC [52]: 0.05 µM
- EC [53]: 0.5 µM
- GI50 [54]: 45 nM
- GI50 [55]: 33.7 nM
- GI50 [56]: 25.6 nM
- GI50 [57]: 34.3 nM
- GI50 [58]: 37 nM
- GI50 [59]: 37.9 nM
- GI50 [60]: 27.1 nM
- GI50 [61]: 37.6 nM
